Experimental data as given in patent publication US4486419A, “5,2',3',4',4",6"-Hexadeoxykanamycin and its 1-N-acylated derivative” (Zaidan Hojin Biseibutsu Kagaku Kenkyu Kai, priority 1982, dated 1984).
Values after ≈ are worked out from the molar mass of the structure shown.

Assays:
Type in all cases: cell-based
[1] = tested on: Klebsiella pneumoniae PCI 602; settings: PCI602, nutrient agar, 37° C., 18 hours
[2] = tested on: Escherichia coli K-12 ML 1410; settings: K12ML1410, nutrient agar, 37° C., 18 hours
[3] = tested on: Shigella dysenteriae JS 11910; settings: JS11910, 18 h
Escherichia coli JR255 = experiment: microbe, parasite or virus in culture; settings: JR255, 18 h
[4] = tested on: Escherichia coli K-12 LA 290 R56; experiment: microbe, parasite or virus in culture; settings: K12LA290R56, 18 h
[5] = tested on: Escherichia coli K-12 ML 1629; settings: K12ML1629, nutrient agar, 37° C., 18 hours
Escherichia coli K-12 R5 = settings: K12R5, 18 h
[6] = tested on: Pseudomonas maltophilia GN907; settings: Stenotrophomonas maltophilia, nutrient agar, 37° C., 18 hours
Serratia 4 = settings: nutrient agar, 37° C., 18 hours
[7] = tested on: Micrococcus luteus PCI 1001; settings: PCI1001, nutrient agar, 37° C., 18 hours
[8] = tested on: Escherichia coli K-12 ML 1630; settings: K12ML1630, nutrient agar, 37° C., 18 hours
[9] = tested on: kanamycin-resistant bacteria; experiment: antibacterial activity against kanamycin-resistant bacteria (in words); settings: even with the kanamycin-resistant bacteria
bacterial strains = experiment: antibacterial activity (in words)

## NCC[C@H](O)C(=O)N[C@@H]1C[C@H](N)[C@@H](O[C@H]2O[C@H](CN)[C@@H](O)[C@H](O)[C@H]2O)[C@H](O)[C@H]1O[C@H]1O[C@H](CO)[C@@H](O)[C@H](N)[C@H]1O [Amikacin, 1-N-[(S)-4-amino-2-hydroxybutyryl]kanamycin A, reference compound]
[1]
  MIC: 0.78 µg/mL (≈ 1.33 µM)
[2]
  MIC: 1.56 µg/mL (≈ 2.66 µM)
[3]
  MIC: 3.13 µg/mL (≈ 5.34 µM)
Escherichia coli JR255
  MIC: 0.78 µg/mL (≈ 1.33 µM)
[4]
  MIC: 0.78 µg/mL (≈ 1.33 µM)
[5]
  MIC: 1.56 µg/mL (≈ 2.66 µM)
Escherichia coli K-12 R5
  MIC: 100 µg/mL (≈ 171 µM)
[6]
  MIC: > 100 µg/mL
Serratia 4
  MIC: 3.13 µg/mL (≈ 5.34 µM)
[7]
  MIC: 3.13 µg/mL (≈ 5.34 µM)
[8]
  MIC: 3.13 µg/mL (≈ 5.34 µM)

## C[C@@H]1C[C@H](N)[C@@H](O)[C@@H](O[C@@H]2C[C@H](O[C@@H]3CCC[C@@H](CN)O3)[C@@H](N)C[C@H]2NC(=O)[C@@H](O)CCN)O1 [Hexadeoxyamikacin, 1-N-[(S)-4-amino-2-hydroxybutyryl]-5,2',3',4',4",6"-hexadeoxykanamycin]
[1]
  MIC: 1.56 µg/mL (≈ 3.19 µM)
[2]
  MIC: 3.13 µg/mL (≈ 6.39 µM)
[3]
  MIC: 6.25 µg/mL (≈ 12.8 µM)
Escherichia coli JR255
  MIC: 0.78 µg/mL (≈ 1.59 µM)
[4]
  MIC: 1.56 µg/mL (≈ 3.19 µM)
[5]
  MIC: 1.56 µg/mL (≈ 3.19 µM)
Escherichia coli K-12 R5
  MIC: 100 µg/mL (≈ 204 µM)
[6]
  MIC: > 100 µg/mL
[9]
  antibacterial activity compared with amikacin: antibacterial activity as high as that of amikacin
Serratia 4
  MIC: 12.5 µg/mL (≈ 25.5 µM)
[7]
  MIC: 6.25 µg/mL (≈ 12.8 µM)
[8]
  MIC: 3.13 µg/mL (≈ 6.39 µM)

## C[C@@H]1C[C@H](N)[C@@H](O)[C@@H](O[C@@H]2C[C@H](O[C@@H]3CCC[C@@H](CN)O3)[C@@H](N)C[C@H]2N)O1 [Hexadeoxykanamycin, 5,2',3',4',4",6"-hexadeoxykanamycin]
[1]
  MIC: 1.56 µg/mL (≈ 4.02 µM)
[2]
  MIC: 3.13 µg/mL (≈ 8.06 µM)
[3]
  MIC: 6.25 µg/mL (≈ 16.1 µM)
Escherichia coli JR255
  MIC: 1.56 µg/mL (≈ 4.02 µM)
[4]
  MIC: 12.5 µg/mL (≈ 32.2 µM)
[5]
  MIC: 25 µg/mL (≈ 64.3 µM)
Escherichia coli K-12 R5
  MIC: > 100 µg/mL
[6]
  MIC: > 100 µg/mL
Bacterial strains
  antibacterial activity: antibacterial activity as high as that of the parent kanamycin A
Serratia 4
  MIC: 25 µg/mL (≈ 64.3 µM)
[7]
  MIC: 12.5 µg/mL (≈ 32.2 µM)
[8]
  MIC: 25 µg/mL (≈ 64.3 µM)
